Here are results for seven compounds from patent publication US20260224714A1, “CYCLING LYSOSOMAL TARGETING ANTIBODY CONJUGATES” (Lycia Therapeutics, Inc., priority 2023, published 2026).

SMILES strings stand for the structures.

Holding throughout (assay type): cell-based
The subject of one assay is human IgE. The assay can be described thus: Degradation of initial and subsequent dose of target in HepG2 cells (Example 12, Table 30). Particulars: normalized to unconjugated; for Normalized Fluorescence Post Wash Median Green: after wash, probe-conjugated IgE added for 4 hours, subsequent dose of target; for Normalized Fluorescence Precomplex Median Deep Red: precomplexed equimolar conjugate:IgE (cathepsin-cleavable quenched fluorescent probe) added for 2 hours, initial dose of target. Put shortly:
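HepG2 cells exposed 2 h to conjugate precomplexed (30 min, 37 °C, equimolar) with 647-quenched-probe human IgE, acid/ice washed, then given 488-probe IgE without conjugate for 4 h. Median 647 (initial) and 488 (recycled) fluorescence by flow cytometry, normalised to unconjugated parent; mean of two wells.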

For another assay, the system named is HepG2 cells. The experiment in a line: Externalization of conjugates from a cell following internalization (cycling), high-throughput format (Example 11). The note with it: 50 nM conjugate 1 hour, stringent washes, Alexa Fluor 647-labelled a-human IgG 1 hour, FACS, normalized to unconjugated parent protein, average of two replicate wells. Put shortly:
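25,000 HepG2 cells incubated with conjugate for 1 h at indicated concentrations, then chilled and washed (DPBS, pH 5.2 acetate, pH 2.5 EBSS) to strip surface conjugate. Recycled conjugate captured by 1 μg/ml AF647 anti-human IgG in 37 °C EMEM for 1 h; median AF647 by flow cytometry, mean of two wells.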

The subject of the next assay is recombinant IgE. The experiment in a line: Degradation of super-stoichiometric levels of target in HepG2 cells (Example 13, Table 31). Particulars: 1 nM conjugate and 25 nM IgE for three days, (A-B)/C IgE depleted relative to conjugate, average of two replicate wells. A digest of the protocol:
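HepG2 cells in EMEM/10% FBS were incubated with 1 nM conjugate plus 25 nM recombinant IgE for 72 h. IgE in medium at start and end quantified by MSD/ELISA-type assay; value is molar equivalents IgE depleted per conjugate, (initial − day-3 IgE)/conjugate concentration, mean of two wells.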

Assay [1] deals with LysoLight-labelled human IgE. The assay can be described thus: Lysosomal degradation of LysoLight-labelled IgE in HepG2 cells, live cell imaging (Example 7). Particulars: equimolar conjugate:LysoLight IgE, area under the curve of deep red fluorescence over three days, normalized to unconjugated parent protein. A digest of the protocol: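 Conjugate precomplexed 30 min at room temperature with equimolar LysoLight-labelled human IgE, added to Fc-receptor-blocked HepG2 cells at final 100–1.23 nM. Red fluorescence, released on lysosomal cathepsin cleavage, imaged hourly for 72 h starting 1 h post-addition; area under the fluorescence–time curve taken as total degradation.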

Assay [2] has as its system Alexa Fluor647 labelled human IgE. The experiment in a line: Uptake assay: internalization of Alexa Fluor 647 labelled IgE in wild type HepG2 cells (Example 6). Particulars: equimolar conjugate and AF647 IgE, 2 hours, median cellular AF647 intensity by flow cytometry, normalized to unconjugated parent protein. A digest of the protocol: (§1)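 HepG2 cells (wild type or ASGPR1/2 KO) pre-blocked with Fc receptor blocker, then exposed 2 h to conjugate precomplexed equimolar with AF647-labelled human IgE (30 min, room temperature) at 300 nM to 1.23 nM final. Median cellular AF647 by flow cytometry, normalized to unconjugated parent protein.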
(In general: In flow cytometry, cells or beads pass a laser one at a time.)

Assay [3] has the same test system. The assay can be described thus: Uptake assay: internalization of Alexa Fluor 647 labelled IgE in ASGPR1/2 KO HepG2 cells (Example 6). The note with it: equimolar conjugate and AF647 IgE, normalized to unconjugated parent protein. A digest of the protocol:
as §1

`CC(=O)N[C@@H]1[C@@H](O)[C@@H](O)[C@@H](CO)O[C@@H]1CCCOCCOCCNC(=O)NCCCC(CCCNC(=O)NCCOCCOCCC[C@H]1O[C@H](CO)[C@H](O)[C@H](O)[C@H]1NC(C)=O)(CCCNC(=O)NCCOCCOCCC[C@H]1O[C@H](CO)[C@H](O)[C@H](O)[C@H]1NC(C)=O)NC(=O)COCCOCCOCCOCCN(C(=O)CBr)C1CCOCC1` [Compound 2307, N-[4-[2-[2-[3-[(2R,3R,4R,5R,6R)-3-acetamido-4,5-dihydroxy-6-(hydroxymethyl)tetrahydropyran-2-yl]propoxy]ethoxy]ethylcarbamoylamino]-1,1-bis[3-[2-[2-[3-[(2R,3R,4R,5R,6R)-3-acetamido-4,5-dihydroxy-6-(hydroxymethyl)tetrahydropyran-2-yl]propoxy]ethoxy]ethylcarbamoylamino]propyl]butyl]-2-[2-[2-[2-[2-[(2-bromoacetyl)-tetrahydropyran-4-yl-amino]ethoxy]ethoxy]ethoxy]ethoxy]acetamide]: in the assay on human IgE, the “Normalized Fluorescence Post Wash Median Green” value is reported as 3.5 and the “Normalized Fluorescence Precomplex Median Deep Red” value turned out to be 3.7. Moreover, in the assay on HepG2 cells, the “Normalized Fluorescence” value is given as 42.9. The “Average Degradation (Molar equivalents)” value with recombinant IgE is given as 5.6 Molar equivalents. In assay [1], the “Normalized Fluorescence 3.7 nM” value is reported as 7.9 and the “Normalized Fluorescence 100 nM” value was 4.1. Also, in assay [2], the “Normalized Fluorescence 3.7 nM WT” value is on record as 81.6 and the “Normalized Fluorescence 100 nM WT” value was determined as 253.2. Also, the “Normalized Fluorescence 100 nM ASGPR KO” value in assay [3] amounted to 1.2.

As to `CC(=O)N[C@@H]1[C@@H](O)[C@@H](O)[C@@H](CO)O[C@@H]1c1cc(COCCOCCNC(=O)NCCCC(CCCNC(=O)NCCOCCOCc2cc([C@H]3O[C@H](CO)[C@H](O)[C@H](O)[C@H]3NC(C)=O)on2)(CCCNC(=O)NCCOCCOCc2cc([C@H]3O[C@H](CO)[C@H](O)[C@H](O)[C@H]3NC(C)=O)on2)NC(=O)CCOCCOCCOCCNS(=O)(=O)c2ccc(N3C(=O)C=CC3=O)cc2)no1` [Compound 2325], in the assay on human IgE, the “Normalized Fluorescence Post Wash Median Green” value was 3.6 and the “Normalized Fluorescence Precomplex Median Deep Red” value turned out to be 3.9. Also, the “Normalized Fluorescence” value with HepG2 cells is reported as 54.2. The “Average Degradation (Molar equivalents)” value in the assay on recombinant IgE is 6.9 Molar equivalents. In addition, in assay [1], the “Normalized Fluorescence 3.7 nM” value came out at 15.8 and the “Normalized Fluorescence 100 nM” value was determined as 3.5. Further, in assay [2], the “Normalized Fluorescence 3.7 nM WT” value is on record as 87.8 and the “Normalized Fluorescence 100 nM WT” value came to 270.0. Also, the “Normalized Fluorescence 100 nM ASGPR KO” value in assay [3] is given as 1.2.

With `O=C(CCOCCOCCOCCNS(=O)(=O)c1ccc(N2C(=O)C=CC2=O)cc1)NC(CCCNC(=O)NCCOCCOCCCc1ccnc(N[C@H]2CO[C@H](CO)[C@H](O)[C@@H]2O)n1)(CCCNC(=O)NCCOCCOCCCc1ccnc(N[C@H]2CO[C@H](CO)[C@H](O)[C@@H]2O)n1)CCCNC(=O)NCCOCCOCCCc1ccnc(N[C@H]2CO[C@H](CO)[C@H](O)[C@@H]2O)n1` [Compound 2311], in the assay on human IgE, the “Normalized Fluorescence Post Wash Median Green” value came to 1.7 and the “Normalized Fluorescence Precomplex Median Deep Red” value amounted to 2.0. Besides, the “Normalized Fluorescence” value in the assay with HepG2 cells came out at 11.6. Further, the “Average Degradation (Molar equivalents)” value in the assay on recombinant IgE is on record as 0.5 Molar equivalents. For the same compound, in assay [1], the “Normalized Fluorescence 3.7 nM” value worked out at 2.2 and the “Normalized Fluorescence 100 nM” value was 2.2. In assay [2], the “Normalized Fluorescence 3.7 nM WT” value is given as 22.6 and the “Normalized Fluorescence 100 nM WT” value stood at 92.9. Also, the “Normalized Fluorescence 100 nM ASGPR KO” value in assay [3] turned out to be 1.1.

Regarding `CN1CCN(C[C@H]2OC[C@H](Nc3nc(OCCOCCOCCNC(=O)NCCCC(CCCNC(=O)NCCOCCOCCOc4cc(C(F)(F)F)nc(N[C@H]5CO[C@H](CN6CCN(C)CC6)[C@H](O)[C@@H]5O)n4)(CCCNC(=O)NCCOCCOCCOc4cc(C(F)(F)F)nc(N[C@H]5CO[C@H](CN6CCN(C)CC6)[C@H](O)[C@@H]5O)n4)NC(=O)CCOCCOCCOCCNS(=O)(=O)c4ccc(N5C(=O)C=CC5=O)cc4)cc(C(F)(F)F)n3)[C@@H](O)[C@H]2O)CC1` [Compound 2312], in the assay with human IgE, the “Normalized Fluorescence Post Wash Median Green” value is reported as 3.0 and the “Normalized Fluorescence Precomplex Median Deep Red” value is given as 3.5. In the assay on HepG2 cells, the “Normalized Fluorescence” value worked out at 44.5. Besides, the “Average Degradation (Molar equivalents)” value with recombinant IgE worked out at 4.1 Molar equivalents. In assay [1], the “Normalized Fluorescence 3.7 nM” value came to 11.1 and the “Normalized Fluorescence 100 nM” value is given as 4.2. In assay [2], the “Normalized Fluorescence 3.7 nM WT” value turned out to be 64.9 and the “Normalized Fluorescence 100 nM WT” value is 242.9. For the same compound, in assay [3], the “Normalized Fluorescence 100 nM ASGPR KO” value came to 1.0.

For the compound `CC(CCCNC(=O)NCCOCCOCCOCC(F)(F)c1cncc(N[C@H]2CO[C@H](CO)[C@H](O)[C@@H]2O)n1)(CCCNC(=O)NCCOCCOCCOCC(F)(F)c1cncc(N[C@H]2CO[C@H](CO)[C@H](O)[C@@H]2O)n1)NC(=O)CCOCCOCCOCCNS(=O)(=O)c1ccc(N2C(=O)C=CC2=O)cc1` [Compound 2304], in the assay on human IgE, the “Normalized Fluorescence Post Wash Median Green” value is 4.1 and the “Normalized Fluorescence Precomplex Median Deep Red” value was 3.9. Moreover, in the assay with HepG2 cells, the “Normalized Fluorescence” value turned out to be 82.2. Also, in the assay on recombinant IgE, the “Average Degradation (Molar equivalents)” value is given as 8.8 Molar equivalents. Besides, in assay [1], the “Normalized Fluorescence 3.7 nM” value was 12.7 and the “Normalized Fluorescence 100 nM” value is listed as 4.0. In assay [2], the “Normalized Fluorescence 3.7 nM WT” value was 150.3 and the “Normalized Fluorescence 100 nM WT” value was determined as 292.5. For the same compound, the “Normalized Fluorescence 100 nM ASGPR KO” value in assay [3] was found to be 1.0.

As for `CC(=O)N[C@H]1[C@H](OCCOCCOCCOCCNC(=O)CCOCC(COCCC(=O)NCCOCCOCCOCCO[C@@H]2O[C@H](CO)[C@H](O)[C@H](O)[C@H]2NC(C)=O)(COCCC(=O)NCCOCCOCCOCCO[C@@H]2O[C@H](CO)[C@H](O)[C@H](O)[C@H]2NC(C)=O)NC(=O)CCOCCOCCOCCOCCNC(=O)c2ccc(N3C(=O)C=CC3=O)cc2)O[C@H](CO)[C@H](O)[C@@H]1O` [Compound 2402-C], in the assay with human IgE, the “Normalized Fluorescence Post Wash Median Green” value is 1.6 and the “Normalized Fluorescence Precomplex Median Deep Red” value is listed as 2.1. Moreover, the “Normalized Fluorescence” value in the assay with HepG2 cells worked out at 10.5. Further, the “Average Degradation (Molar equivalents)” value in the assay on recombinant IgE is reported as 0.7 Molar equivalents. For the same compound, in assay [1], the “Normalized Fluorescence 3.7 nM” value is on record as 2.2 and the “Normalized Fluorescence 100 nM” value is recorded as 2.1. Besides, in assay [2], the “Normalized Fluorescence 3.7 nM WT” value is reported as 19.6 and the “Normalized Fluorescence 100 nM WT” value was 84.3. For the same compound, in assay [3], the “Normalized Fluorescence 100 nM ASGPR KO” value is recorded as 1.3.

As for `CC(=O)N[C@@H]1[C@@H](O)[C@@H](O)[C@@H](CO)O[C@@H]1CCCCCOCCOCCNC(=O)NCCCOCC(COCCCNC(=O)NCCOCCOCCCCC[C@@H]1O[C@@H](CO)[C@@H](O)[C@@H](O)[C@@H]1NC(C)=O)(COCCCNC(=O)NCCOCCOCCCCC[C@H]1O[C@H](CO)[C@H](O)[C@H](O)[C@H]1NC(C)=O)NC(=O)CCOCCOCCOCCNC(=O)c1ccc(N2C(=O)C=CC2=O)cc1` (stereo partly drawn) [Compound 2317], in the assay with human IgE, the “Normalized Fluorescence Post Wash Median Green” value is given as 3.7 and the “Normalized Fluorescence Precomplex Median Deep Red” value turned out to be 3.6. Also, in the assay with HepG2 cells, the “Normalized Fluorescence” value amounted to 48.8. Besides, the “Average Degradation (Molar equivalents)” value with recombinant IgE came out at 4.0 Molar equivalents. In assay [1], the “Normalized Fluorescence 3.7 nM” value came out at 15.2 and the “Normalized Fluorescence 100 nM” value was determined as 4.2. In assay [2], the “Normalized Fluorescence 3.7 nM WT” value is given as 76.2 and the “Normalized Fluorescence 100 nM WT” value amounted to 255.2. The “Normalized Fluorescence 100 nM ASGPR KO” value in assay [3] is on record as 1.1.
